Here are results for six compounds from patent US6683200B2, “N-substituted-N′-substituted urea derivatives and pharmaceutical compositions containing the derivatives” (Santen Pharmaceutical Co., Ltd., priority 1999, dated 2004).

Data set [1] deals with TNF-α production by human monocyte strain THP-1 cells stimulated with LPS. Put plainly: Inhibition of LPS-induced TNF-α production in THP-1 cells (ELISA). The note with it: compound 10^−5M, THP-1 cells 10^6 cells/ml, LPS 2 μg/ml, 37° C., two hours; for inhibition at 10 µM: Homo sapiens, 2 h, read-out: Rate of Inhibition (%) of TNF-α production. The format is cell-based. On the procedure:
Each candidate compound was inspected for the effect of inhibiting TNF-α production induced by the stimulation with lipopolysaccharide (LPS), by an in vitro test according to the method proposed by McGeehan et al. (Nature, 1994, 370:558-561).
The test (assay) was carried out by determining the amount of TNF-α produced by the human monocyte strain THP-1 cells induced by the stimulation with LPS.
The culture medium used in this test was RPMI 1640 culture medium supplemented wiTNFetal calf serum (10%), L-glutamine (2 mM), 2-mercaptoethanol (50 μM), penicillin (50 units/ml) and streptomycin (50 μg/ml).
Regarding the cells, the human monocyte strain THP-1 cells cultivated in the foregoing culture medium were centrifuged at 100 xg for 5 minutes to remove the supernatant and then again suspended in a fresh culture medium prior to the practical use. The LPS used herein was derived from S. Typhimurium and this was dissolved in purified water and then diluted with the culture medium prior to use. Each compound to be tested (candidate compound) was dissolved in dimethyl sulfoxide (DMSO) and diluted with the culture medium prior to the practical use.
The cells (10^6 cells/ml) prepared according to the foregoing method were admixed with the LPS (2 μg/ml) and a compound to be tested (10^−5M), the cells were incubated at 37° C. for two hours and then centrifuged at 1000 xg for 5 minutes. The resulting supernatant of the culture medium was inspected for the level of TNF-α using the human TNF-α-specific ELISA kit. In this connection, it was confirmed that the supernatant obtained by cultivating the cells in the culture medium free of any LPS (control) never included any TNF-α.
The rate of the TNF-α production inhibitory effect observed for each candidate compound was determined according to the following equation:
Rate of Inhibition (%)=100×(A−B)/A
Wherein A is the level of TNF-α detected in the supernatant obtained from the culture medium free of any candidate compound and B is the level of TNF-α detected in the supernatant obtained from the culture medium containing a candidate compound.

Counter-ions that a name gives are not always drawn.

With `CC(C)CCN(CCN)C(=O)N[C@H](CSSC[C@H](Cc1ccccc1)NC(=O)N(CCN)CCC(C)C)Cc1ccccc1` (as salt: hydrochloride) [Compound 8-1, Bis[(2S)-2-[3-(2-aminoethyl)-3-isopentylureido]-3-phenylpropane] Disulfide di-hydrochloride], the melting point was 100 °C (dec.).
In the case of `CC(=O)SCCN(CCc1ccccc1)C(=O)N[C@@H](Cc1ccccc1)CN(C)C` [Compound 6-3, 1-[2-(Acetylthio)ethyl]-3-[(1S)-1-benzyl-2-(dimethylamino)ethyl]-1-phenethyl urea], in data set [1], the inhibition at 10 µM worked out at 83%.
As to `CC(=O)SC[C@H](Cc1ccccc1)NC(=O)N(CCC(C)C)CCN(C)C` [Compound 6-8, 1-[(1S)-2-(Acetylthio)-1-benzylethyl]-3-[2-(dimethylamino)ethyl]-3-isopentyl urea], the inhibition at 10 µM in data set [1] worked out at 60%.
On the same count and under the same terms, with `CC(=O)SC[C@H](Cc1ccc(-c2ccccc2)cc1)NC(=O)N(CCC(C)C)CCN(C)C` [Compound 6-11, 1-[(1S)-2-(Acetylthio)-1-[(4-biphenylyl)methyl]ethyl]-3-[2-(dimethylamino)-ethyl]-3-isopentyl urea] the figure was 76%; with `CC(C)CCN(CCN)C(=O)N[C@H](CSSC[C@H](Cc1ccccc1)NC(=O)N(CCN)CCC(C)C)Cc1ccccc1` [Compound 8-1, Bis[(2S)-2-[3-(2-aminoethyl)-3-isopentylureido]-3-phenylpropane] Disulfide di-hydrochloride], 81%.
As to `CC(C)CCN(CCN)C(=O)N[C@H](CSSC[C@H](Cc1ccc(-c2ccccc2)cc1)NC(=O)N(CCN)CCC(C)C)Cc1ccc(-c2ccccc2)cc1.Cl.Cl` [Compound 8-2, Bis[(2S)-2-[3-(2-aminoethyl)-3-isopentylureido]-3-(4-biphenylyl)propane]-disulfide di-hydrochloride], in data set [1], the “Rate of Inhibition (%) of TNF-α production” value came to 66%.
